Measurements reported in US8614208B2, “Fused heterocyclic ring derivative and use thereof” (Takeda Pharmaceutical Company Limited, priority 2009, dated 2013).

Biological target: T1, Smo (Mus musculus, UniProt P56726)
T1 construct: endogenous in cells; host or cells: NIH-3T3 cells stably carrying the Gli reporter plasmid
Assay: Gli reporter luciferase assay in NIH-3T3/Gli reporter cells stimulated with mouse Shh-N end fragment
Format: cell-based
Conditions: NIH3T3; 1 μM compound; NIH-3T3/Gli reporter cells with mouse Shh-N culture supernatant, 48 hr; luciferase activity, control without compound as 100; read-out: inhibitory rate (%) at 1 μM
Method: Gli reporter plasmid was constructed by inserting 8×Gli-binding site and chicken δ-crystalline promoter into the upstream of luc+ of pGL3 (Promega).
prepared in reference to the base sequence described in GenBank accession No.; X02187, and chicken genome DNA (Clontech) as a template. PCR reaction was performed using Pfu Turbo (Stratagene) and following the attached protocol. The obtained 108 bp fragment was digested with restriction enzymes BglII and HindIII, and inserted into BglII-HindIII site of pGL3 to give plasmid pGL3/δ-cry promoter.
As 8×Gli-binding site, a sequence containing eight 9-bp Gli bound consensus sequences (GACCACCCA) described in Yoon et al., J. Biol. Chem., vol. 273, pages 3496-3501 (1998) was prepared from synthetic DNA. That is, two synthetic DNAs,
were heat treated at 95° C. for 2 minutes, and incubated at 37° C. for 1 hr for annealing to give a double stranded DNA of the above-mentioned two synthetic DNAs. The obtained double stranded DNA was digested with restriction enzymes BglII and KpnI, and the obtained DNA fragment was inserted into BglII-KpnI site of pGL3/δ-cry promoter to construct plasmid pGL3/δ-cry promoter, 8×Gli binding site, i.e., Gli reporter plasmid.
HEK293 cells were grown in D-MEM medium (Invitrogen) containing 10% fetal bovine serum in a 10 cm dish and pcDNA3.1/mShh-N was introduced into the cells using FuGENE6 (Roche Applied Science). Thereafter, the HEK293 cells were cultured in a carbon dioxide gas incubator at 37° C. for 24 hours, and the medium was exchanged with D-MEM medium (Invitrogen) containing 2% fetal bovine serum. After culturing for 48 hr, a culture supernatant containing recombinant type mouse Shh-N end fragment was obtained by filtration using a filter ([…]).
Using D-MEM (Invitrogen) containing 10% fetal bovine serum, expression plasmid pcDNA3.1 and Gli reporter plasmid (pGL3/δ-cry promoter, 8×Gli binding site) produced by the method of Experimental Example 1 were introduced into NIH-3T3 cells grown in a 10 cm dish by the use of FuGENE6 (Roche Applied Science).
After culture for 24 hr, the cells were recovered, suspended in D-MEM medium containing 10% fetal bovine serum and supplemented with Geneticin (Life Technologies Oriental, Inc.) to a final concentration of 500 μg/ml, diluted to 10^4 cells/ml, plated on a 96 well plate, and cultured in a carbon dioxide gas incubator at 37° C. to give Geneticin resistant transformed cell line.
The obtained transformed cell line was cultured in a 96 well plate, mouse Shh-N end fragment obtained in Experimental Example 3 was added, and NIH-3T3/Gli reporter cell, which is a cell line capable of induction of luciferase expression, was selected.
NIH-3T3/Gli reporter cells cultured in D-MEM (Invitrogen) containing 10% fetal bovine serum were plated in a 96 well white plate at 1×10^4 cells/well, and cultured overnight in a carbon dioxide gas incubator at 37° C. The medium was removed, a compound (50 μl) and culture supernatant of mouse Shh-N end fragment-expressing HEK293 (D-MEM medium containing 2% fetal bovine serum, 50 μl) were added, and the cells were cultured for 48 hr in a carbon dioxide gas incubator at 37° C. Bright-Glo (Promega, 50 μl) was added, and the mixture was stirred, after which luciferase activity was measured by EnVision (PerkinElmer). The inhibition rate was calculated based on the luciferase activity of the control without addition of the compound as 100.

T1 sequence (P56726 33-793): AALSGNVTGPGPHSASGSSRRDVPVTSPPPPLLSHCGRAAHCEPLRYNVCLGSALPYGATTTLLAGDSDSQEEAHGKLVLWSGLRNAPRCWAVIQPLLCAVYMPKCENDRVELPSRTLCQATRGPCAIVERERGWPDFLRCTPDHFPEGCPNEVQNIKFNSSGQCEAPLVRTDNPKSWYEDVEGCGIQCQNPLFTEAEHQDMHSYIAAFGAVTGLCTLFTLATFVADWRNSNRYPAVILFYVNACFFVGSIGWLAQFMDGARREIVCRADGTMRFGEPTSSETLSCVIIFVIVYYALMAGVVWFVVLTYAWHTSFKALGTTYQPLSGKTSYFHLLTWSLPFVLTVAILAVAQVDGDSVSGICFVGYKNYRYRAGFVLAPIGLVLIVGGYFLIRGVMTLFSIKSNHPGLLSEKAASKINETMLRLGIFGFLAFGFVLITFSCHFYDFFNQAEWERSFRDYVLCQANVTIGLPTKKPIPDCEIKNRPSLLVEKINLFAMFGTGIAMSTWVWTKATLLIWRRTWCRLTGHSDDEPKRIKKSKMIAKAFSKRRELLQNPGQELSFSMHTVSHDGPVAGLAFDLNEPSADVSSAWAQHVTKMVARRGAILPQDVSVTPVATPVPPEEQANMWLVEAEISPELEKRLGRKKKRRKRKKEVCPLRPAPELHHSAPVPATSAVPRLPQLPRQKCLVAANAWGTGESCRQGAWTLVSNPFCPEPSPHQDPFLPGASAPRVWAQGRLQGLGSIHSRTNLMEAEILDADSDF

| inhibition at 1 µM [%] | SMILES |
| --- | --- |
| 98 | Cc1nc2c(c(OCC(F)(F)F)c(C(=O)NC3CCN(C(=O)CO)CC3)n2C)c(=O)n1CC(=O)c1ccccc1 [Example 1, N-[1-(hydroxyacetyl)piperidin-4-yl]-2,7-dimethyl-4-oxo-3-(2-oxo-2-phenylethyl)-5-(2,2,2-trifluoroethoxy)-4,7-dihydro-3H-pyrrolo[2,3-d]pyrimidine-6-carboxamide] |
| 95 | CCOc1c(C(=O)NC2CCN(C(=O)CO)CC2)n(C)c2nc(C)n(CC(=O)c3ccccc3)c(=O)c12 [Example 2, 5-ethoxy-N-[1-(hydroxyacetyl)piperidin-4-yl]-2,7-dimethyl-4-oxo-3-(2-oxo-2-phenylethyl)-4,7-dihydro-3H-pyrrolo[2,3-d]pyrimidine-6-carboxamide] |
| 93 | Cc1nc2c(c(OC(C)C)c(C(=O)NC3CCN(C(=O)CO)CC3)n2C)c(=O)n1CC(=O)c1ccccc1 [Example 3, N-[1-(hydroxyacetyl)piperidin-4-yl]-2,7-dimethyl-5-(1-methylethoxy)-4-oxo-3-(2-oxo-2-phenylethyl)-4,7-dihydro-3H-pyrrolo[2,3-d]pyrimidine-6-carboxamide] |
| 98 | Cc1nc2c(c(OCC(F)(F)F)c(C(=O)NC3CCN(C(=O)CO)CC3)n2C)c(=O)n1Cc1ccccc1 [Example 4, 3-benzyl-N-[1-(hydroxyacetyl)piperidin-4-yl]-2,7-dimethyl-4-oxo-5-(2,2,2-trifluoroethoxy)-4,7-dihydro-3H-pyrrolo[2,3-d]pyrimidine-6-carboxamide] |
| 100 | Cc1nc2c(c(OCC(F)(F)F)c(C(=O)NC3CCN(C(=O)CO)CC3)n2C)c(=O)n1Cc1ccc(F)cc1 [Example 5, 3-(4-fluorobenzyl)-N-[1-(hydroxyacetyl)piperidin-4-yl]-2,7-dimethyl-4-oxo-5-(2,2,2-trifluoroethoxy)-4,7-dihydro-3H-pyrrolo[2,3-d]pyrimidine-6-carboxamide] |
| 97 | COc1cccc(Cn2c(C)nc3c(c(OCC(F)(F)F)c(C(=O)NC4CCN(C(=O)CO)CC4)n3C)c2=O)c1 [Example 6, N-[1-(hydroxyacetyl)piperidin-4-yl]-3-(3-methoxybenzyl)-2,7-dimethyl-4-oxo-5-(2,2,2-trifluoroethoxy)-4,7-dihydro-3H-pyrrolo[2,3-d]pyrimidine-6-carboxamide] |
| 96 | COc1ccccc1Cn1c(C)nc2c(c(OCC(F)(F)F)c(C(=O)NC3CCN(C(=O)CO)CC3)n2C)c1=O [Example 8, N-[1-(hydroxyacetyl)piperidin-4-yl]-3-(2-methoxybenzyl)-2,7-dimethyl-4-oxo-5-(2,2,2-trifluoroethoxy)-4,7-dihydro-3H-pyrrolo[2,3-d]pyrimidine-6-carboxamide] |
| 95 | Cc1nc2c(c(OCC(F)(F)F)c(C(=O)NC3CCN(C(=O)CO)CC3)n2C)c(=O)n1Cc1ccc(Cl)cc1 [Example 9, 3-(4-chlorobenzyl)-N-[1-(hydroxyacetyl)piperidin-4-yl]-2,7-dimethyl-4-oxo-5-(2,2,2-trifluoroethoxy)-4,7-dihydro-3H-pyrrolo[2,3-d]pyrimidine-6-carboxamide] |
| 98 | Cc1nc2c(c(OCC(F)(F)F)c(C(=O)NC3CCN(C(=O)CO)CC3)n2C)c(=O)n1Cc1cccc(Cl)c1 [Example 10, 3-(3-chlorobenzyl)-N-[1-(hydroxyacetyl)piperidin-4-yl]-2,7-dimethyl-4-oxo-5-(2,2,2-trifluoroethoxy)-4,7-dihydro-3H-pyrrolo[2,3-d]pyrimidine-6-carboxamide] |
| 96 | CCCCCn1c(C)nc2c(c(OCC(F)(F)F)c(C(=O)NC3CCN(C(=O)CO)CC3)n2C)c1=O [Example 11, N-[1-(hydroxyacetyl)piperidin-4-yl]-2,7-dimethyl-4-oxo-3-pentyl-5-(2,2,2-trifluoroethoxy)-4,7-dihydro-3H-pyrrolo[2,3-d]pyrimidine-6-carboxamide] |
